Laboratory results from ChEMBL document CHEMBL5126592, “Design, synthesis and activity against drug-resistant bacteria evaluation of C-20, C-23 modified 5-O-mycaminosyltylonolide derivatives” (Eur J Med Chem, 2022).
Values after ≈ are worked out from the molar mass of the structure shown. Active and inactive are the calls of the source. No cut-off for these calls is given here.

Experiments:
Assay type in all cases: functional
[1] = test system: Staphylococcus chromogenes; assay: Antibacterial activity against Staphylococcus chromogenes incubated for 16 to 20 hrs by broth microdilution method; details: time 16-20 hrs
Klebsiella pneumoniae = assay: Antibacterial activity against Klebsiella pneumoniae ATCC 13883 incubated for 16 to 20 hrs by broth microdilution method; details: time 16-20 hrs
Staphylococcus aureus [2] = assay: Antibacterial activity against Staphylococcus aureus ATCC 25923 incubated for 16 to 20 hrs by broth microdilution method; details: time 16-20 hrs
Escherichia coli [3] = assay: Antibacterial activity against Escherichia coli incubated for 16 to 20 hrs by broth microdilution method; details: time 16-20 hrs
Enterococcus faecium = assay: Antibacterial activity against Enterococcus faecium incubated for 16 to 20 hrs by broth microdilution method; details: time 16-20 hrs
Escherichia coli [4] = assay: Antibacterial activity against Escherichia coli ATCC 25922 incubated for 16 to 20 hrs by broth microdilution method; details: time 16-20 hrs
[5] = test system: Streptococcus dysgalactiae; assay: Antibacterial activity against Streptococcus dysgalactiae incubated for 16 to 20 hrs by broth microdilution method; details: time 16-20 hrs
Pseudomonas aeruginosa = assay: Antibacterial activity against Pseudomonas aeruginosa LTP-3 incubated for 16 to 20 hrs by broth microdilution method; details: time 16-20 hrs
Cronobacter sakazakii = assay: Antibacterial activity against Cronobacter sakazakii ATCC 29544 incubated for 16 to 20 hrs by broth microdilution method; details: time 16-20 hrs
Staphylococcus aureus [6] = assay: Antibacterial activity against Staphylococcus aureus incubated for 16 to 20 hrs by broth microdilution method; details: time 16-20 hrs
Escherichia coli [7] = assay: Induction of drug resistance in Escherichia coli ATCC 25922 assessed as increase in MIC measured after 30 passages by broth microdilution method
Escherichia coli [8] = assay: Antibacterial activity against Escherichia coli ATCC 25922 incubated for 16 to 20 hrs in presence of 25% foetal bovine serum by broth microdilution method; details: time 16-20 hrs
Escherichia coli [9] = assay: Antibacterial activity against Escherichia coli ATCC 25922 incubated for 16 to 20 hrs in presence of 5% foetal bovine serum by broth microdilution method; details: time 16-20 hrs
Escherichia coli [10] = assay: Antibacterial activity against Escherichia coli ATCC 25922 incubated for 16 to 20 hrs using 10^3 CFU/ml bacterial inoculum by broth microdilution method; details: time 16-20 hrs
Escherichia coli [11] = assay: Antibacterial activity against Escherichia coli ATCC 25922 incubated for 16 to 20 hrs using 10^5 CFU/ml bacterial inoculum by broth microdilution method; details: time 16-20 hrs
Escherichia coli [12] = assay: Antibacterial activity against Escherichia coli ATCC 25922 incubated for 16 to 20 hrs in presence of 10% foetal bovine serum by broth microdilution method; details: time 16-20 hrs
Escherichia coli [13] = assay: Antibacterial activity against Escherichia coli ATCC 25922 incubated for 16 to 20 hrs in absence of foetal bovine serum by broth microdilution method; details: time 16-20 hrs
Escherichia coli [14] = assay: Antibacterial activity against Escherichia coli ATCC 25922 incubated for 16 to 20 hrs in presence of 50% foetal bovine serum by broth microdilution method; details: time 16-20 hrs
Escherichia coli [15] = assay: Antibacterial activity against Escherichia coli ATCC 25922 incubated for 16 to 20 hrs using 10^6 CFU/ml bacterial inoculum by broth microdilution method; details: time 16-20 hrs
Escherichia coli [16] = assay: Antibacterial activity against Escherichia coli ATCC 25922 incubated for 16 to 20 hrs using 10^4 CFU/ml bacterial inoculum by broth microdilution method; details: time 16-20 hrs
Escherichia coli [17] = assay: Antibacterial activity against Escherichia coli ATCC 25922 incubated for 16 to 20 hrs using 10^7 CFU/ml bacterial inoculum by broth microdilution method; details: time 16-20 hrs

Row | Compound | MIC [1] | MIC (Klebsiella pneumoniae) | MIC (Staphylococcus aureus [2]) | MIC (Escherichia coli [3]) | MIC (Enterococcus faecium) | MIC (Escherichia coli [4]) | MIC [5] | MIC (Pseudomonas aeruginosa) | MIC (Cronobacter sakazakii) | MIC (Staphylococcus aureus [6]) | also measured
1 | CN[C@H](CC(C)C)C(=O)N[C@H]1C(=O)N[C@@H](CC(N)=O)C(=O)N[C@H]2C(=O)N[C@H]3C(=O)N[C@H](C(=O)N[C@H](C(=O)O)c4cc(O)cc(O)c4-c4cc3ccc4O)[C@H](O)c3ccc(c(Cl)c3)Oc3cc2cc(c3O[C@@H]2O[C@H](CO)[C@@H](O)[C@H](O)[C@H]2O[C@H]2C[C@](C)(N)[C@H](O)[C@H](C)O2)Oc2ccc(cc2Cl)[C@H]1O [VANCOMYCIN] | 8 µg/mL (≈ 5.52 µM) | 32 µg/mL (≈ 22.1 µM) | 0.25 µg/mL (≈ 0.173 µM) | > 32 µg/mL | 16 µg/mL (≈ 11 µM) | 32 µg/mL (≈ 22.1 µM) | 16 µg/mL (≈ 11 µM) | 32 µg/mL (≈ 22.1 µM) | 32 µg/mL (≈ 22.1 µM) |  | 
2 | CC[C@H]1OC(=O)C[C@@H](O)[C@H](C)[C@@H](O[C@@H]2O[C@H](C)[C@@H](O)[C@H](N(C)C)[C@H]2O)[C@@H](CC=O)C[C@@H](C)C(=O)/C=C/C(C)=C/[C@@H]1CO | 1 µg/mL (≈ 1.67 µM) | > 32 µg/mL | 0.5 µg/mL (≈ 0.836 µM) | > 32 µg/mL | 1 µg/mL (≈ 1.67 µM) | > 32 µg/mL | 1 µg/mL (≈ 1.67 µM) | 32 µg/mL (≈ 53.5 µM) | > 32 µg/mL | 1 µg/mL (≈ 1.67 µM) | 
3 | CCCN1C[C@H](C)[C@@H](O)[C@](C)(O)[C@@H](CC)OC(=O)[C@H](C)[C@@H](O[C@H]2C[C@](C)(OC)[C@H](O)[C@@H](C)O2)[C@H](C)[C@@H](O[C@@H]2O[C@H](C)C[C@H](N(C)C)[C@H]2O)[C@](C)(O)C[C@H]1C | 8 µg/mL (≈ 10.3 µM) | 16 µg/mL (≈ 20.6 µM) | 4 µg/mL (≈ 5.15 µM) | 16 µg/mL (≈ 20.6 µM) | 32 µg/mL (≈ 41.2 µM) | 16 µg/mL (≈ 20.6 µM) | 32 µg/mL (≈ 41.2 µM) | 32 µg/mL (≈ 41.2 µM) | 16 µg/mL (≈ 20.6 µM) | 8 µg/mL (≈ 10.3 µM) | 
4 | CC[C@H]1OC(=O)C[C@@H](O)[C@H](C)[C@@H](O[C@@H]2O[C@H](C)[C@@H](O)[C@H](N(C)C)[C@H]2O)[C@@H](CCN(C)Cc2cn(-c3cnc4ccccc4c3)nn2)C[C@@H](C)C(=O)/C=C/C(C)=C/[C@@H]1CN1CCCCCCC1 | 1 µg/mL (≈ 1.09 µM) | 1 µg/mL (≈ 1.09 µM) | 0.125 µg/mL (≈ 0.136 µM) | 2 µg/mL (≈ 2.18 µM) | 2 µg/mL (≈ 2.18 µM) | 2 µg/mL (≈ 2.18 µM) | 0.5 µg/mL (≈ 0.546 µM) | 1 µg/mL (≈ 1.09 µM) | 4 µg/mL (≈ 4.37 µM) | 0.5 µg/mL (≈ 0.546 µM) | 
5 | CC[C@H]1OC(=O)C[C@@H](O)[C@H](C)[C@@H](O[C@@H]2O[C@H](C)[C@@H](O)[C@H](N(C)C)[C@H]2O)[C@@H](CCN(C)Cc2cn(-c3cnc4ccccc4c3)nn2)C[C@@H](C)C(=O)/C=C/C(C)=C/[C@@H]1CN(C)C | 0.5 µg/mL (≈ 0.59 µM) | 2 µg/mL (≈ 2.36 µM) | 0.25 µg/mL (≈ 0.295 µM) | 2 µg/mL (≈ 2.36 µM) | 1 µg/mL (≈ 1.18 µM) | 2 µg/mL (≈ 2.36 µM) | 2 µg/mL (≈ 2.36 µM) | 2 µg/mL (≈ 2.36 µM) | 4 µg/mL (≈ 4.72 µM) | 0.25 µg/mL (≈ 0.295 µM) | 
6 | CC[C@H]1OC(=O)C[C@@H](O)[C@H](C)[C@@H](O[C@@H]2O[C@H](C)[C@@H](O)[C@H](N(C)C)[C@H]2O)[C@@H](CCN(C)Cc2cn(-c3cnc4ccccc4c3)nn2)C[C@@H](C)C(=O)/C=C/C(C)=C/[C@@H]1CO | 0.125 µg/mL (≈ 0.152 µM) | 2 µg/mL (≈ 2.44 µM) | 1 µg/mL (≈ 1.22 µM) | 4 µg/mL (≈ 4.87 µM) | 2 µg/mL (≈ 2.44 µM) | 4 µg/mL (≈ 4.87 µM) | 0.5 µg/mL (≈ 0.609 µM) | 4 µg/mL (≈ 4.87 µM) | 8 µg/mL (≈ 9.74 µM) | 0.25 µg/mL (≈ 0.304 µM) | 
7 | CS(=O)(=O)c1ccc([C@@H](O)[C@@H](CF)NC(=O)C(Cl)Cl)cc1 |  |  |  |  |  |  |  |  |  |  | Activity (Escherichia coli [7]): Active
8 | C[C@@H](O)[C@H]1C(=O)N2C(C(=O)O)=C(S[C@@H]3CN[C@H](C(=O)N(C)C)C3)[C@H](C)[C@H]12 [MEROPENEM] | 0.0625 µg/mL (≈ 0.163 µM) | < 0.0625 µg/mL | 0.0625 µg/mL (≈ 0.163 µM) | < 0.0625 µg/mL | 8 µg/mL (≈ 20.9 µM) | 0.125 µg/mL (≈ 0.326 µM) | 8 µg/mL (≈ 20.9 µM) | < 0.0625 µg/mL | 0.0625 µg/mL (≈ 0.163 µM) | < 0.0625 µg/mL | MIC (Escherichia coli [8]): < 0.0625 µg/mL; MIC (Escherichia coli [9]): < 0.0625 µg/mL; MIC (Escherichia coli [10]): < 0.0625 µg/mL; MIC (Escherichia coli [11]): < 0.0625 µg/mL; MIC (Escherichia coli [12]): < 0.0625 µg/mL; MIC (Escherichia coli [13]): < 0.0625 µg/mL; MIC (Escherichia coli [14]): < 0.0625 µg/mL; MIC (Escherichia coli [15]): < 0.0625 µg/mL; MIC (Escherichia coli [16]): < 0.0625 µg/mL; MIC (Escherichia coli [17]): < 0.0625 µg/mL
